Assay in all cases: NCI-60 cell line screen, 48 h
The test system of experiment [1] is A498.
Experiment [2] has as its system ACHN.
For experiment [3], the system named is BT-549.
For experiment [4], the system named is COLO 205.
The test system of experiment [5] is DU-145.
Experiment [6] concerns HCT-116.
In experiment [7] the test system is HCT-15.
The test system of experiment [8] is HOP-92.
For experiment [9], the system named is KM12.
Experiment [10] deals with MCF7.
The test system of experiment [11] is NCI-H23.
Experiment [12] relates to NCI-H522.
In experiment [13] the test system is OVCAR-4.
In experiment [14] the test system is PC-3.
Experiment [15] concerns SK-MEL-5.
The subject of experiment [16] is SW-620.
The subject of experiment [17] is T47D.
Experiment [18] deals with UACC-257.
Experiment [19] relates to NCI-H460.
The subject of experiment [20] is SNB-75.

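These data come from cells grown in 96-well plates and exposed to compound for 48 hours at five concentrations. GI50 = concentration required for 50% inhibition of growth.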 Active and inactive are the calls of the source. Rule as the data show it: active = GI50 up to about 1.1 µM and inactive = higher. Where only a bound is given, the exact number is not on record here.

Turning to `O=C1N2CCc3c([nH]c4ccccc34)C23CC2CCCC12S3` (stereo not given), the GI50 in experiment [1] was 33 µM (inactive); in [2], 37.3 µM (inactive); in experiment [3] it was 21.7 µM (inactive); in experiment [4], 26.7 µM (inactive); in [5], 39.4 µM (inactive); in [6], 20.6 µM (inactive). Further, the GI50 in [7] is 18.1 µM; in [8] it was 29 µM (inactive); in experiment [9], 25.4 µM (inactive); in experiment [10], 18.7 µM (inactive); in experiment [11], 20.1 µM (inactive); in [12], > 50 µM (inactive). The GI50 is 41 µM (inactive) in experiment [13]; 24.7 µM (inactive) in [14]; 20.3 µM (inactive) in experiment [15]; > 50 µM (inactive) in [16]; 20.5 µM (inactive) in [17]; 18.2 µM (inactive) in experiment [18].

For `COc1cc2c(cc1OC)C13CCN4CC5CCOC6CC(=O)N2C1C6C5CC43` (stereo not given), the GI50 in [1], in experiment [2], in [3], in experiment [4], in [5] and in experiment [6] was > 100 µM (inactive) in each case. For the same molecule, the GI50 in [7] is over 100 µM; in experiment [8] it was > 100 µM (inactive); in experiment [9], > 100 µM (inactive); in experiment [10], > 100 µM (inactive); in experiment [11] it was > 100 µM (inactive); in experiment [19], > 100 µM (inactive). Besides, the GI50 in experiment [12], in experiment [13], in [14], in experiment [15], in [16] and in [17] was > 100 µM (inactive) in each case. Also, the GI50 in experiment [18] is > 100 µM (inactive).

Consider `Cc1cc(N(CCC#N)CCC#N)ccc1C(/N=N/c1ccc([N+](=O)[O-])cc1)=N\NC(=O)c1ccccc1`, for which the GI50 in [1] is 25.9 µM (inactive); in experiment [2], 62.8 µM (inactive); in experiment [3] it was 37.5 µM (inactive); in experiment [4], 35.2 µM (inactive); in [5], 48 µM (inactive); in [6] it was 31.8 µM (inactive). The GI50 is 30.1 µM in experiment [7]; 40.8 µM (inactive) in experiment [9]; 25.8 µM (inactive) in [10]; 30.7 µM (inactive) in [11]; 37.2 µM (inactive) in experiment [19]; 17 µM (inactive) in experiment [12]. For the same molecule, the GI50 in experiment [13] is 61 µM (inactive); in experiment [14] it was 41.2 µM (inactive); in experiment [15], 26.4 µM (inactive); in experiment [20] it was 48.4 µM (inactive); in experiment [17], 27 µM (inactive); in experiment [18] it was 61.8 µM (inactive).

Regarding `COC(=O)[C@]12CSC[C@H]1C[C@H](c1ccccc1OC)N2`, the GI50 in experiment [1], in experiment [2], in [3], in experiment [4], in experiment [5] and in [6] was > 100 µM (inactive) each time. In addition, the GI50 was over 100 µM in experiment [7]; > 100 µM (inactive) in experiment [9]; > 100 µM (inactive) in experiment [10]; > 100 µM (inactive) in experiment [11]; > 100 µM (inactive) in experiment [19]; > 100 µM (inactive) in experiment [12]. The GI50 in experiment [13], in [14], in experiment [15], in [20], in [16] and in experiment [17] was > 100 µM (inactive) throughout. Also, in [18], the GI50 is > 100 µM (inactive).

In the case of `C=C(C)COc1cc(/N=C(/S)OC(C)C)ccc1Cl`, the GI50 in [2] is 17.1 µM (inactive); in experiment [3], 10.8 µM (inactive); in experiment [4], 16.3 µM (inactive); in experiment [5], 16.7 µM (inactive); in experiment [6], 15.2 µM (inactive); in experiment [7], 15.7 µM. For the same molecule, the GI50 is 13.6 µM (inactive) in experiment [8]; 20.2 µM (inactive) in experiment [9]; 15.4 µM (inactive) in experiment [10]; 16.1 µM (inactive) in experiment [11]; 15.4 µM (inactive) in experiment [19]; 14.9 µM (inactive) in experiment [12]. The GI50 in experiment [13] is 14.5 µM (inactive); in experiment [14] it was 14.7 µM (inactive); in experiment [15] it was 19.5 µM (inactive); in experiment [20], 15.2 µM (inactive); in experiment [16], 13.7 µM (inactive); in [17], 13.3 µM (inactive). In addition, the GI50 in experiment [18] was 17.3 µM (inactive).

For the molecule `CC(=O)NC(C)(C)C1CC=C(C)/C(=N\O)C1` (stereo not given), the GI50 in experiment [3] was > 100 µM (inactive); in [4], > 100 µM (inactive); in experiment [5] it was > 100 µM (inactive); in experiment [6] it was > 100 µM (inactive); in experiment [7], over 100 µM; in [8], > 100 µM (inactive). For the same molecule, the GI50 in [9], in [10], in experiment [11], in experiment [19], in experiment [12] and in experiment [13] was > 100 µM (inactive) in each case. In addition, the GI50 in experiment [14], in [15], in experiment [20], in experiment [16], in experiment [17] and in experiment [18] was > 100 µM (inactive) throughout.

Turning to `COc1cccc2c1C1(O)C2CCCCCCCCCC12OCCCO2` (stereo not given), the GI50 was > 58.2 µM (inactive) in experiment [1]; > 35.2 µM (inactive) in [2]; 92 µM (inactive) in experiment [3]; > 33.8 µM (inactive) in experiment [4]; 92.7 µM (inactive) in experiment [5]; 6.81 µM (inactive) in experiment [6]. For the same molecule, the GI50 was 4.93 µM in experiment [7]; > 38 µM (inactive) in experiment [9]; 19.8 µM (inactive) in experiment [10]; > 58.6 µM (inactive) in experiment [11]; 6.25 µM (inactive) in [19]; > 50.2 µM (inactive) in experiment [12]. In addition, the GI50 in experiment [13] was > 100 µM (inactive); in experiment [14], 6.44 µM (inactive); in [15], 21.6 µM (inactive); in experiment [20], > 44.1 µM (inactive); in [16], > 46.7 µM (inactive); in experiment [17] it was 23.4 µM (inactive). In [18], the GI50 was > 69.2 µM (inactive).

In the case of `OC(CN(CCCl)CCCl)C(O)C(O)C(O)CN(CCCl)CCCl` (stereo not given), the GI50 in experiment [1] is > 100 µM (inactive); in experiment [2], 2.7 µM (inactive); in [3], > 100 µM (inactive); in experiment [4], 84.7 µM (inactive); in experiment [5] it was 71.9 µM (inactive); in [6] it was > 100 µM (inactive). The GI50 in experiment [7] was over 100 µM; in experiment [8] it was > 100 µM (inactive); in experiment [9], > 100 µM (inactive); in [10], 29 µM (inactive); in experiment [11] it was 63.1 µM (inactive); in experiment [19], 9.89 µM (inactive). For the same molecule, the GI50 was 47.3 µM (inactive) in experiment [12]; > 100 µM (inactive) in experiment [14]; > 100 µM (inactive) in [15]; > 100 µM (inactive) in experiment [16]; 30.5 µM (inactive) in experiment [17]; > 100 µM (inactive) in [18].

Regarding `C[C@]12CC[C@@H]3c4cc(Br)c(O)c(Br)c4CC[C@H]3[C@@H]1CC(Br)C2=O` (stereo not given in full), the GI50 is 23.3 µM (inactive) in [1]; 6.37 µM (inactive) in experiment [2]; 5 µM (inactive) in experiment [3]; 7.87 µM (inactive) in experiment [4]; 23.4 µM (inactive) in experiment [5]; 3.66 µM (inactive) in [6]. Moreover, the GI50 in experiment [7] is 2.65 µM; in experiment [8], 20.7 µM (inactive); in experiment [9] it was 3.57 µM (inactive); in [10], 5.61 µM (inactive); in [19], 5.82 µM (inactive); in experiment [13] it was 5.97 µM (inactive). Moreover, the GI50 is 8.61 µM (inactive) in [14]; 12.1 µM (inactive) in experiment [20]; 3.36 µM (inactive) in experiment [16]; 4.65 µM (inactive) in [17]; 15.8 µM (inactive) in [18].

Regarding `C=CCN1C[C@@H](C)N([C@@H](c2ccccc2)c2ccc(C(=O)N(CC)CC)cc2)C[C@@H]1C`, the GI50 in experiment [1], in experiment [2], in experiment [3], in experiment [4], in experiment [5] and in [6] was > 100 µM (inactive) throughout. The GI50 in experiment [7] is over 100 µM; in experiment [8], 8.43 µM (inactive); in experiment [9] it was > 100 µM (inactive); in experiment [10], > 100 µM (inactive); in experiment [11], > 100 µM (inactive); in experiment [12], > 100 µM (inactive). Further, the GI50 is > 100 µM (inactive) in experiment [13]; > 100 µM (inactive) in experiment [14]; > 100 µM (inactive) in [15]; > 100 µM (inactive) in [16]; 65.8 µM (inactive) in [17].

In the case of `CC(C)OP(=O)(OC(C)C)C(C(F)(F)F)C(F)(F)F`, the GI50 in experiment [2] is > 100 µM (inactive); in experiment [3] it was > 100 µM (inactive); in experiment [4], > 100 µM (inactive); in [5], > 100 µM (inactive); in experiment [6], > 100 µM (inactive); in experiment [7], over 100 µM. The GI50 in experiment [8], in experiment [9], in experiment [10], in experiment [11], in [12] and in [13] was > 100 µM (inactive) throughout. Moreover, the GI50 in experiment [14], in experiment [15], in experiment [20], in experiment [16], in [17] and in experiment [18] was > 100 µM (inactive) throughout.

For the origin of these results see ChEMBL document CHEMBL1201862, “PubChem BioAssay data set” (2004).
